Measured values published in patent US6894049B1, “Platinum complexes as antitumor agents” (AnorMED, Inc., priority 2000, dated 2005).

Key:
CH1 = assay: Cell proliferation, human cancer cell line CH1; format: cell-based; conditions: read-out: concentration necessary to achieve a 50% decrease in cell proliferation
Description: (§1) The complexes of the invention were tested against human cancer cell lines grown in cell culture according to established testing procedures (described by Holford, et al., British J. Cancer 1998 77(3) 366-373). The results are given in concentrations (μM) necessary to achieve a 50% decrease in cell proliferation, with resistance factors in brackets for the cisplatin-resistant cell lines.

41MR = assay: Cell proliferation, cisplatin-resistant human cancer cell line 41MR; format: cell-based; conditions: for resistance factor: 41MR/41M, in brackets; for IC50: 41MR, read-out: concentration necessary to achieve a 50% decrease in cell proliferation
Description: as §1

41M = assay: Cell proliferation, human cancer cell line 41M; format: cell-based; conditions: read-out: concentration necessary to achieve a 50% decrease in cell proliferation
Description: as §1

A2780 = assay: Cell proliferation, human cancer cell line A2780; format: cell-based; conditions: read-out: concentration necessary to achieve a 50% decrease in cell proliferation
Description: as §1

A2780R = assay: Cell proliferation, cisplatin-resistant human cancer cell line A2780R; format: cell-based; conditions: for resistance factor: A2780R/A2780, in brackets; for IC50: A2780R, read-out: concentration necessary to achieve a 50% decrease in cell proliferation
Description: as §1

CH1R = assay: Cell proliferation, cisplatin-resistant human cancer cell line CH1R; format: cell-based; conditions: for resistance factor: CH1R/CH1, in brackets; for IC50: CH1R, read-out: concentration necessary to achieve a 50% decrease in cell proliferation
Description: as §1

[1] = Aqueous solubility at ambient conditions; format: physicochemical

Structure (SMILES): Cc1c[n+]([Pt-2]([NH3+])([OH])([OH])([Cl])[Cl])c(C)[nH]1 [Example 16]
- IC50 (CH1): 10 µM
- resistance factor (41MR): 1.5
- IC50 (41MR): 28 µM
- IC50 (41M): 19 µM
- IC50 (A2780): 12.5 µM
- resistance factor (A2780R): > 8
- IC50 (A2780R): > 100 µM
- resistance factor (CH1R): 2.1
- IC50 (CH1R): 21 µM

Structure (SMILES): Cc1cc(C)[n+]([Pt-2]([NH3+])([Cl])[Cl])o1 [Example 4]
- IC50 (CH1): 3.2 µM
- IC50 (41MR): 6 µM
- IC50 (41M): 8 µM
- IC50 (A2780): 3.7 µM
- Aqueous Solubility [1]: 1270 µg/mL
- resistance factor (A2780R): 6.4
- IC50 (A2780R): 23.5 µM
- resistance factor (CH1R): 2.5
- IC50 (CH1R): 8 µM

Structure (SMILES): Cn1cc[n+]([Pt-2]([NH3+])([OH])([OH])([Cl])[Cl])c1 [Example 12, (OC-6-43)-amminedichlorodihydroxo-(1-methylimidazole)platinum(IV)]
- IC50 (CH1): 13 µM
- resistance factor (41MR): 1.9
- IC50 (41MR): 45 µM
- IC50 (41M): 23.5 µM
- IC50 (A2780): 17 µM
- resistance factor (A2780R): 4.5
- IC50 (A2780R): 77 µM
- resistance factor (CH1R): 1.9
- IC50 (CH1R): 24.5 µM

Structure (SMILES): Cc1n(C)cc[n+]1[Pt-2]([NH3+])([Cl])[Cl] [Example 7]
- IC50 (CH1): 8.3 µM
- resistance factor (41MR): 1.6
- IC50 (41MR): 15 µM
- IC50 (41M): 9.3 µM
- IC50 (A2780): 7.1 µM
- resistance factor (A2780R): 2.5
- IC50 (A2780R): 17.5 µM
- resistance factor (CH1R): 1.4
- IC50 (CH1R): 12 µM

Structure (SMILES): Cc1[nH]cc[n+]1[Pt-2]([NH3+])([Cl])[Cl] [Example 8]
- IC50 (CH1): 5.2 µM
- resistance factor (41MR): 0.8
- IC50 (41MR): 16.5 µM
- IC50 (41M): 21 µM
- resistance factor (CH1R): 2.5
- IC50 (CH1R): 12.5 µM

Structure (SMILES): Cc1c[n+]([Pt-2]([NH3+])([Cl])[Cl])c(C)cn1 [Example 5]
- IC50 (CH1): 5 µM
- IC50 (41MR): 9 µM
- IC50 (41M): 11.5 µM
- IC50 (A2780): 6 µM
- resistance factor (A2780R): 5.8
- IC50 (A2780R): 35 µM
- resistance factor (CH1R): 1.6
- IC50 (CH1R): 8 µM

Structure (SMILES): CC(=O)[O][Pt-2]([NH3+])([Cl])([Cl])([O]C(C)=O)[n+]1ccnc(C)c1C [Example 14, (OC-6-43)-amminedichlorodiacetato-(2,3-dimethylpyrazine)platinum(IV)]
- IC50 (CH1): 9.4 µM
- resistance factor (41MR): 1.2
- IC50 (41MR): 36 µM
- IC50 (41M): 29 µM
- resistance factor (CH1R): 3.2
- IC50 (CH1R): 30 µM

Structure (SMILES): Cn1cc[n+]([Pt-2]([NH3+])([Cl])[Cl])c1 [Example 3]
- IC50 (CH1): 7.6 µM
- resistance factor (41MR): 1.7
- IC50 (41MR): 12.5 µM
- IC50 (41M): 7.4 µM
- IC50 (A2780): 6.4 µM
- resistance factor (A2780R): 2.6
- IC50 (A2780R): 16.5 µM
- resistance factor (CH1R): 1.4
- IC50 (CH1R): 10.5 µM

Structure (SMILES): CC(=O)[O][Pt]([NH2])([Cl])([Cl])([NH]C1CCCCC1)[O]C(C)=O [bis-acetato-ammine(cyclohexylamine)dichloroplatinum(IV), reference compound]
- resistance factor (41MR): 1.2
- IC50 (41MR): 0.6 µM
- IC50 (41M): 0.5 µM
- IC50 (A2780): 0.4 µM
- Aqueous Solubility [1]: <1000 µg/mL
- resistance factor (A2780R): 4.6
- IC50 (A2780R): 1.84 µM
- resistance factor (CH1R): 4
- IC50 (CH1R): 0.4 µM
